Experimental data taken from patent US20090018111A1, “Novel Antimicrobial Medicament” (priority 2004, published 2009).
Where two headings read alike, the source gives them in different places.

Key:
[1] = system: E. cloacae GN7471; test: Sensitivity test (agar dilution); format: cell-based, Enterobacter cloacae; conditions: Enterobacter cloacae, read-out: MIC
Protocol: (§1) The antibacterial activities were tested against various 18 bacteria (27 standard strains) which are representative bacteria caused clinically infectious disease (Staphylococcus aureus 3 strains, Staphylococcus epidermidis 1 strain, Micrococcus luteus 1 strain, Streptococcus pyogenes 1 strain, Enterococcus faecalis 1 strain, Enterococcus faecium 1 strain, Bacillus subtilis 1 strain, Escherichia coli 3 strains, Klebsiella pneumoniae 1 strain, Proteus mirabilis 1 strain, Proteus vulgaris 2 strains, Pseudomonas aeruginosa 3 strains, Serratia marcescens 2 strains, Enterobacter aerogenes 1 strain, Stenotrophomonas maltophilia 1 strain, Enterobacter cloacae 1 strain, Citrobacter freundii 1 strain, Moraxella catarrhalis 2 strains).
(§2) According to the standard method of Japan Chemotherapeutic Society (Chemotherapy, vol. […], p 76-79 (1981)) the test was carried out using the agar dilution method. After dissolving test samples in distilled water, agar medium containing the test samples was prepared in such a manner that the final concentration became twice serial dilution by pouring serially diluted combination drug solution or a single drug solution into agar medium. As agar medium was used Mueller Hinton Agar medium (MHA). Then, each strain was cultivated over night at 37° C. in an incubator and suspended in buffered saline solution with gelatin (BSG) in the concentration of about 10^6 CFU/ml. The suspension (about 5 μl) containing test strains was inoculated to the medium containing the test samples by Micro Planter.
(§3) When the sample is subjected to sensitivity test, this mixed solution was diluted by twice serial dilution method.
(§4) Furthermore, when the drug is solely used, each test sample was used as it is, and diluted by twice serial dilution method from the maximum concentration to the minimum concentration.
(§5) FIC index based on MIC value was calculated. […] Namely, when FIC index calculated by the following formula is equal or less than 1, the enhanced effect of the combination drug in said ratio is considered as positive. When FIC index is over 1, the enhanced effect of the combination drug in said ratio is considered as negative.
(§6) Formula of FIC index: FIC index=(MIC of Drug A in combination/MIC of Drug A alone)+(MIC of Drug B in combination/MIC of Drug B alone) N.C. in tables means being not calculated.

[2] = system: S. maltophilia IID1275; test: Sensitivity test (agar dilution); format: cell-based, Stenotrophomonas maltophilia; conditions: Stenotrophomonas maltophilia, read-out: MIC
Protocol: as §1, §2, §3, §4, §5, §6

[3] = system: E. coli ML1410 RP4; test: microbe, parasite or virus in culture; format: cell-based, Escherichia coli; conditions: Escherichia coli
Protocol: as §1, §2, §3, §4, §5, §6

[4] = system: S. aureus 209P; test: Sensitivity test (agar dilution); format: cell-based, Staphylococcus aureus; conditions: Staphylococcus aureus, 209P, read-out: MIC
Protocol: as §1, §2, §3, §4, §5, §6

[5] = system: S. aureus MS94088 (hetero-MRSA); test: Sensitivity test (agar dilution); format: cell-based, Staphylococcus aureus; conditions: Staphylococcus aureus, MRSA
Protocol: as §1, §2, §3, §4, §5, §6

[6] = system: S. aureus SP-7928 (homo-MRSA); test: Sensitivity test (agar dilution); format: cell-based, Staphylococcus aureus; conditions: Staphylococcus aureus, MRSA, read-out: MIC
Protocol: as §1, §2, §3, §4, §5, §6

[7] = system: E. faecium ATCC19434; test: Sensitivity test (agar dilution); format: cell-based, Enterococcus faecium
Protocol: as §1, §2, §3, §4, §5, §6

[8] = system: E. coli ML1410; test: Sensitivity test (agar dilution); format: cell-based, Escherichia coli; conditions: Escherichia coli, read-out: MIC
Protocol: as §1, §2, §3, §4, §5, §6

[9] = system: E. coli NIHJ JC-2; test: Sensitivity test (agar dilution); format: cell-based, Escherichia coli; conditions: Escherichia coli, read-out: MIC
Protocol: as §1, §2, §3, §4, §5, §6

[10] = system: K. pneumoniae ATCC10031; test: Sensitivity test (agar dilution); format: cell-based, Klebsiella pneumoniae; conditions: Klebsiella pneumoniae, read-out: MIC
Protocol: as §1, §2, §3, §4, §5, §6

[11] = system: P. aeruginosa TL-2666; test: Sensitivity test (agar dilution); format: cell-based, Pseudomonas aeruginosa; conditions: Pseudomonas aeruginosa, read-out: MIC
Protocol: as §1, §2, §3, §4, §5, §6

[12] = system: P. aeruginosa IFO3451; test: Sensitivity test (agar dilution); format: cell-based, Pseudomonas aeruginosa; conditions: Pseudomonas aeruginosa, read-out: MIC
Protocol: as §1, §2, §3, §4, §5, §6

[13] = system: P. aeruginosa TL-2667; test: Sensitivity test (agar dilution); format: cell-based, Pseudomonas aeruginosa; conditions: Pseudomonas aeruginosa, read-out: MIC
Protocol: as §1, §2, §3, §4, §5, §6

[14] = Concomitant drug (MEPM:SM = 2:1)

Structure (SMILES): C[C@@H](O)[C@H]1C(=O)N2C(C(=O)O)=C(S[C@@H]3CN[C@H](C(=O)N(C)C)C3)[C@H](C)[C@H]12 [MEPM, meropenem]
- MIC ([1]; GN7471, Concomitant (MEPM:SM = 1:1)): 0.031 mg/L
- MIC ([1]; GN7471, Concomitant (MEPM:SM = 1:2)): 0.031 mg/L
- MIC ([1]; GN7471, Concomitant (MEPM:SM = 1:4)): 0.031 mg/L
- MIC ([1]; GN7471, Concomitant drug (MEPM:SM = 2:1)): 0.031 mg/L
- MIC ([1]; GN7471, alone): 0.063 mg/L
- MIC ([2]; IID1275, Concomitant (MEPM:SM = 1:1)): > 32 mg/L
- MIC ([2]; IID1275, Concomitant (MEPM:SM = 1:2)): > 32 mg/L
- MIC ([2]; IID1275, Concomitant (MEPM:SM = 1:4)): > 32 mg/L
- MIC ([2]; IID1275, Concomitant drug (MEPM:SM = 2:1)): > 32 mg/L
- MIC ([2]; IID1275, alone): > 32 mg/L
- MIC ([3]; ML1410RP4, Concomitant (MEPM:SM = 1:1)): ≤ 0.016 mg/L
- MIC ([3]; ML1410RP4, Concomitant (MEPM:SM = 1:2)): ≤ 0.016 mg/L
- MIC ([3]; ML1410RP4, Concomitant (MEPM:SM = 1:4)): ≤ 0.016 mg/L
- MIC ([3]; ML1410RP4, Concomitant drug (MEPM:SM = 2:1)): ≤ 0.016 mg/L
- MIC ([3]; ML1410RP4, alone): 0.031 mg/L
- MIC ([4]; Concomitant (MEPM:SM = 1:1)): ≤ 0.016 mg/L
- MIC ([4]; Concomitant (MEPM:SM = 1:2)): ≤ 0.016 mg/L
- MIC ([4]; Concomitant (MEPM:SM = 1:4)): ≤ 0.016 mg/L
- MIC [4, 14]: ≤ 0.016 mg/L
- MIC ([4]; alone): 0.063 mg/L
- MIC [5]: 0.125 mg/L
- MIC ([5]; Concomitant (MEPM:SM = 1:1), read-out: MIC): 0.25 mg/L
- MIC ([5]; Concomitant (MEPM:SM = 1:4), read-out: MIC): 0.063 mg/L
- MIC ([5]; Concomitant drug (MEPM:SM = 2:1), read-out: MIC): 0.5 mg/L
- MIC ([5]; alone, read-out: MIC): 4 mg/L
- MIC ([6]; Concomitant (MEPM:SM = 1:1)): 1 mg/L
- MIC ([6]; Concomitant (MEPM:SM = 1:2)): 1 mg/L
- MIC ([6]; Concomitant (MEPM:SM = 1:4)): 0.5 mg/L
- MIC [6, 14]: 2 mg/L
- MIC ([6]; alone): 32 mg/L
- MIC ([7]; Concomitant (MEPM:SM = 1:2)): 0.125 mg/L
- MIC ([7]; Enterococcus faecium, ATCC19434): 0.125 mg/L
- MIC ([7]; Enterococcus faecium, ATCC19434, Concomitant (MEPM:SM = 1:4), read-out: MIC): 0.031 mg/L
- MIC ([7]; Enterococcus faecium, ATCC19434, Concomitant drug (MEPM:SM = 2:1), read-out: MIC): 0.5 mg/L
- MIC ([7]; Enterococcus faecium, ATCC19434, alone, read-out: MIC): 8 mg/L
- MIC ([8]; ML1410, Concomitant (MEPM:SM = 1:1)): ≤ 0.016 mg/L
- MIC ([8]; ML1410, Concomitant (MEPM:SM = 1:2)): ≤ 0.016 mg/L
- MIC ([8]; ML1410, Concomitant (MEPM:SM = 1:4)): ≤ 0.016 mg/L
- MIC ([8]; ML1410, Concomitant drug (MEPM:SM = 2:1)): ≤ 0.016 mg/L
- MIC ([8]; ML1410, alone): 0.031 mg/L
- MIC ([9]; NIHJJC2, Concomitant (MEPM:SM = 1:1)): ≤ 0.016 mg/L
- MIC ([9]; NIHJJC2, Concomitant (MEPM:SM = 1:2)): ≤ 0.016 mg/L
- MIC ([9]; NIHJJC2, Concomitant (MEPM:SM = 1:4)): ≤ 0.016 mg/L
- MIC ([9]; NIHJJC2, Concomitant drug (MEPM:SM = 2:1)): ≤ 0.016 mg/L
- MIC ([9]; NIHJJC2, alone): ≤ 0.016 mg/L
- MIC ([10]; ATCC10031, Concomitant (MEPM:SM = 1:1)): ≤ 0.016 mg/L
- MIC ([10]; ATCC10031, Concomitant (MEPM:SM = 1:2)): ≤ 0.016 mg/L
- MIC ([10]; ATCC10031, Concomitant (MEPM:SM = 1:4)): ≤ 0.016 mg/L
- MIC ([10]; ATCC10031, Concomitant drug (MEPM:SM = 2:1)): ≤ 0.016 mg/L
- MIC ([10]; ATCC10031, alone): ≤ 0.016 mg/L
- MIC ([11]; TL2666, Concomitant (MEPM:SM = 1:1)): 1 mg/L
- MIC ([11]; TL2666, Concomitant (MEPM:SM = 1:2)): 1 mg/L
- MIC ([11]; TL2666, Concomitant (MEPM:SM = 1:4)): 1 mg/L
- MIC ([11]; TL2666, Concomitant drug (MEPM:SM = 2:1)): 1 mg/L
- MIC ([11]; TL2666, alone): 1 mg/L
- MIC ([12]; IFO3451, Concomitant (MEPM:SM = 1:1)): 0.5 mg/L
- MIC ([12]; IFO3451, Concomitant (MEPM:SM = 1:2)): 0.5 mg/L
- MIC ([12]; IFO3451, Concomitant (MEPM:SM = 1:4)): 0.5 mg/L
- MIC ([12]; IFO3451, Concomitant drug (MEPM:SM = 2:1)): 0.5 mg/L
- MIC ([12]; IFO3451, alone): 0.5 mg/L
- MIC ([13]; TL2667, Concomitant (MEPM:SM = 1:1)): 4 mg/L
- MIC ([13]; TL2667, Concomitant (MEPM:SM = 1:2)): 2 mg/L
- MIC ([13]; TL2667, Concomitant (MEPM:SM = 1:4)): 2 mg/L
- MIC ([13]; TL2667, Concomitant drug (MEPM:SM = 2:1)): 4 mg/L
- MIC ([13]; TL2667, alone): 4 mg/L
